# Data: patent publication US20080319184A1, “Uses of Dinucleotide Polyphosphate Derivatives” (priority 2005, published 2008)
# Entries after “also recorded” stand apart in the source; their conditions may differ. Like-named read-outs stand apart in the source and are kept apart here.
# What was measured:
# [1] = tested on: orthodromically evoked field potentials in CA1 zone of rat hippocampal slices; assay: Orthodromically induced population spikes (field potentials) in CA1 zone of rat hippocampal slices; type: cell-based; details: for inhibition of orthodromically evoked field potentials by known P2X/P2Y agonists: in the same way as AppCH2ppA, FIG. 8, FIG. 9
# Procedure: This study was carried out on 21-day old Wistar rats (WAG/GSto, Moscow, Russia). After rapid decapitation, rat brains were immediately transferred to a Petri dish with chilled (4° C.) solution of the composition 120 mM NaCl, 5 mM KCl, 26 mM NaHCO3, 2 mM MgCl2 and 20 mM glucose. Calcium salts were omitted to reduce possible neuronal damage. The solution was constantly bubbled with 95%O2/5%CO2 gas mixture to maintain pH7.4. Hippocampal slices ([…] thick) were cut manually with a razor blade along the alveolar fibres to preserve the lamellar structure of excitatory connections. During preincubation and experiments, the slices were kept fully submerged in the extracellular solution, pH7.4, comprised of 135 mM NaCl, 5 mM KCl, 26 mM NaHCO3, 1.5 mM CaCl2, 1.5 mM MgCl2, and 20 mM glucose, subjected to continuous bubbling with 95% O2/5% CO2) at 30-31° C. […] (RBI, Natick, Mass., USA) was also included into the extracellular solution during experiments to suppress the inhibitory activity of interneurons. Electrophysiological measurements were recording after at least 2 h of preincubation.
# Excitatory postsynaptic currents (EPSCs) were recorded by a standard whole-cell patch clamp technique in the CA1 subfield of the hippocampus in response to stimulation of the Schaffer collateral/commissural pathway. To prevent the spread of electrical activity from area CA3, mini-slices were prepared by making a cut orthogonal to the stratum pyramidale extending to the mossy fibre layer. The intracellular solution, pH 7.2, for patch pipettes was comprised of 100 mM CsF (Merck, Darmstadt, FRG), 40 mM NaH2PO4, 10 mM HEPES-CsOH, 10 mM Tris-HCl. […] Access resistance was monitored throughout the experiments and ranged typically from 6 to 9MΩ. […] Extracellular field potentials were recorded using Ni/Cr electrodes. […] The effects of receptor agonists of antagonists were measured as the mean ratio I/Io where I was the current under the substances action and Io was the current in control saline. […]
# [2] = tested on: orthodromically evoked field potentials in CA1 zone of rat hippocampal slices; details: cited from earlier work
# [3] = tested on: excitatory postsynaptic currents in CA1 pyramidal neuron; details: cited from earlier work
# [4] = tested on: NMDA-receptor-mediated channels; assay: NMDA-activated current in isolated hippocampal pyramidal neurons (whole-cell patch clamp); type: cell-based, rat
# Procedure: NMDA-receptor-activated currents were evoked by 1-2 sec long co-application of aspartate (ASP) (1 mM) and glycine (10 μM). Vh=−100 mV in Mg^2+ free solution.
# Wistar rats (12-17-days old) were decapitated under ether anaesthesia and the hippocampus (or cerebellum) was removed. It was cut into slices (300-500 μm) in a solution containing (in mM): 150 NaCl; 5 KCl; 1.25 NaH2PO4; 26 NaHCO3; 1.1 MgCl2; 10 glucose; pH 7.4. Then the slices were incubated for 10 min at 32° C. with 0.5 mg/ml of protease (type XXIII) from Aspergillus oryzae. Single pyramidal cells from CA1 and CA3 stratum pyramidale layers were isolated by vibrodissociation locally in the stratum pyramidale CA3 and CA1 hippocampal pyramidal neurons were identified by their characteristic form and partially preserved dendritic arborisation.
# After isolation the cells were usually suitable for recordings for 2-4 h. Throughout the entire procedure the solutions with the slices were continuously saturated with 95% O2 and 5% CO2 gas mixture to maintain pH 7.4. The tested substances were dissolved in DMSO to a stock concentration of 10 mM and kept frozen at −40° C. in daily aliquots. The substances were dissolved in external saline to their final concentration immediately before the experiments.
# NMDA-activated currents in isolated neurons were induced by the step application of aspartate (1 mM) and […] in the “concentration clamp” mode (Krishtal et al., 1983), using the computerized “Pharma-Robot” set-up (Pharma-Robot, Kiev). This equipment allows a complete change of saline within 15 ms. Transmembrane currents were recorded using a conventional patch-clamp technique, in the whole-cell configuration. […] The intracellular solution contained (in mM): 70 Tris-PO4; 5 EGTA; 40 TEA-Cl (tetraethylammonium chloride); 30 Tris-Cl; 5 Mg-ATP; 0.5 GTP; pH 7.2. The composition of extracellular solution was (in mM):. 130 NaCl; 3 CaCl2; 5 KCl; 2 MgCl2; 10 HEPES-NaOH; 0.1 μM TTX; pH 7.4. Recording of the currents was performed using patch-clamp amplifiers (DAGAN, USA). Transmembrane currents were filtered at 3 kHz, stored and analysed with an IBM-PC computer using homemade software. NMDA responses were recorded with a 3 min interval. All experiments were performed at room temperature (19-24° C.).
# [5] = tested on: orthodromically evoked field potentials in CA1 zone of rat hippocampal slices; assay: Orthodromically induced population spikes (field potentials) in CA1 zone of rat hippocampal slices; type: cell-based
# [6] = tested on: excitatory postsynaptic currents in CA1 pyramidal neuron; assay: Excitatory postsynaptic currents (EPSCs), whole-cell patch clamp in CA1 pyramidal neuron of hippocampal slices; type: cell-based, rat
# Procedure: (§1) This study was carried out on 21-day old Wistar rats (WAG/GSto, Moscow, Russia). After rapid decapitation, rat brains were immediately transferred to a Petri dish with chilled (4° C.) solution of the composition 120 mM NaCl, 5 mM KCl, 26 mM NaHCO3, 2 mM MgCl2 and 20 mM glucose. Calcium salts were omitted to reduce possible neuronal damage. The solution was constantly bubbled with 95%O2/5%CO2 gas mixture to maintain pH7.4. Hippocampal slices ([…] thick) were cut manually with a razor blade along the alveolar fibres to preserve the lamellar structure of excitatory connections. […]
# (§2) Excitatory postsynaptic currents (EPSCs) were recorded by a standard whole-cell patch clamp technique in the CA1 subfield of the hippocampus in response to stimulation of the Schaffer collateral/commissural pathway. […] Access resistance was monitored throughout the experiments and ranged typically from 6 to 9MΩ. […] Extracellular field potentials were recorded using Ni/Cr electrodes. […] The effects of receptor agonists of antagonists were measured as the mean ratio I/Io where I was the current under the substances action and Io was the current in control saline. […]
# [7] = tested on: antidromically induced population spikes in CA1 zone of rat hippocampal slices; assay: Antidromically induced population spikes in CA1 zone of rat hippocampal slices; type: cell-based
# Procedure: as §1, §2
# [8] = tested on: CFA-induced thermal hyperalgesia; assay: CFA-induced thermal hyperalgesia (Plantar test, paw withdrawal latency); type: in vivo, rat
# Procedure: CFA-Induced Thermal Hyperalgesia. Unilateral inflammation was induced by injecting 100 μl of 50% solution of CFA (Sigma) in physiological saline into the plantar surface of the right hind paw of the rat. The hyperalgesia to thermal stimulation was determined 48 h after CFA injections using the same apparatus as described below for the noxious acute thermal assay.
# Thermal sensitivity: On each day following mechanical testing, rats will be placed in a thermal testing apparatus (Plantar test, Ugo Basile, Italy), in which they will be free to move. After 30 min of acclimatization, a constant-power IR stimulus will be focused through the glass base on to the sole of the foot, and the latency for reflex foot withdrawal will be recorded automatically via a photoelectric monitor as previously described Hargreaves et al. 1988.
# In each test session, each rat (from 6 tested rats) was tested in three sequential trials at approximately 15 min intervals.
smiles,measurement,setting,value
Nc1ncnc2c1ncn2[C@@H]1O[C@H](COP(=O)(O)OP(=O)(O)OP(O)(O)=S)[C@@H](O)[C@H]1O [ATPγS],inhibition of orthodromically evoked field potentials by known P2X/P2Y agonists,[1],unable to inhibit
"Nc1ncnc2c1ncn2[C@@H]1O[C@H](COP(=O)(O)OP(=O)(O)OP(=O)(O)OP(=O)(O)OC[C@H]2O[C@@H](n3cnc4c(N)ncnc43)[C@H](O)[C@@H]2O)[C@@H](O)[C@H]1O [Ap4A, diadenosine 5′,5′″-P^1,P^4-tetraphosphate]",effect on orthodromically evoked field potentials,[2]; literature,inhibition
same,effect on excitatory postsynaptic currents,[3]; literature,inhibition
Nc1ncnc2c1ncn2[C@@H]1O[C@H](COP(=O)(O)OP(=O)(O)CP(=O)(O)OP(=O)(O)OC[C@H]2O[C@@H](n3cnc4c(N)ncnc43)C(O)C2O)C(O)C1O (stereo partly shown) [AppCH2ppA],effect on NMDA-activated current in presence of reactive blue,[4]; P2Y receptor antagonist reactive blue,eliminated
same,effect on NMDA-activated current in presence of EDTA,[4]; chelator of bivalent cations EDTA,removed
same,amplitude of the NMDA-activated current,"[4]; low micromolar concentrations, concentration-dependent manner",increased
same,effect on NMDA-activated current after pre-treatment with genestein,[4]; non-specific tyrosine protein kinase inhibitor genestein,abolished
same,effect on NMDA-activated current in presence of PPADS,[4]; purine P2 receptor antagonist PPADS,eliminated
same,effect on orthodromically evoked field potentials,"[1]; 1.9, 3.7 and 7.4 μm applied in steps, all synaptic pathways incl. CA3-CA1 synapses (FIG. 5A)",fast and reversible inhibition
same,effect on amplitude of orthodromically induced population spikes in presence of Ip4I,"[5]; Ip4I 20 μM, then 7.4 μM (FIG. 10)",did hot alter
same,blocking effect on the orthodromic spikes in presence of PPADS,[5]; PPADS 20 μM applied first (FIG. 6),completely abolished
same,reduction by PTIO of the extent of inhibition of orthodromically evoked field potentials,"[5]; PTIO 1 mM, then 2.5 μM (FIG. 12)",over 50%
same,inhibition of orthodromically evoked field potentials in presence of adenosine deaminase,"[5]; adenosine deaminase approx. 2 U/ml, then 7.4 μM",eliminated
same,inhibition of orthodromically evoked field potentials in presence of bicuculine,"[5]; bicuculine 50 μM, then 7.4 μM",unaffected
same,inhibition of orthodromically evoked field potentials in presence of CPT,"[5]; cyclopentyl teophylline (CPT) 1 μM, then 7.4 μM (FIG. 7)",eliminated
same,inhibition of orthodromically evoked field potentials in presence of hexamethonium,"[5]; hexamethonium 100 μM, then 7.4 μM",unaffected
same,inhibition of orthodromically evoked field potentials in presence of strychnine,"[5]; strychnine 500 nM, then 7.4 μM",unaffected
same,EPSC decay,[6]; FIG. 5C,unchanged
same,amplitudes of EPSCs,"[6]; recorded in CA1 pyramidal neuron, 1.9-7.4 μm (FIG. 5C)",remained unchanged
same,amplitudes of antidromic spikes,"[7]; CA3-CA1 synapses, 1.9-7.4 μm (FIG. 5B)",remained unchanged
same,effect on amplitude of antidromically induced population spikes in presence of Ip4I,"[7]; Ip4I 20 μM, then 7.4 μM (FIG. 11)",did not cause AppCH2ppA to have an effect
same,CFA-induced thermal hyperalgesia,[8]; 50 μmol/kg s.c.,attenuates
same,"thermal hyperalgesia, contra lateral paw",[8]; 50 μmol/kg s.c. (FIG. 18),attenuates
same,"paw withdrawal latencies, contra lateral (non-inflamed) paw",[8]; 48 h (FIG. 18),increases
same,"paw withdrawal latencies, CFA-injected paw",[8]; 48 h after intraplantar CFA (FIG. 17),increases
same,paw withdrawal latencies for the uninjured paw,"[8]; at the doses tested, compared with injured paw",less effectively altered
same,"thermal hyperalgesia, injured paw","[8]; s.c. administration, 48 h after intraplantar CFA (FIG. 17)",evidently potent; also recorded: fully blocked
same,onset of antinociceptive effects in the injured paw after injection,"[8]; s.c., injured paw",3 h
Nc1ncnc2c1ncn2[C@@H]1O[C@H](CO)[C@@H](O)[C@H]1O [adenosine],effect on orthodromic spikes,"[2]; 5 μM, shown previously (literature)",inhibit
same,effect on EPSC amplitudes,[3]; shown previously (literature),diminish
"Nc1ncnc2c1ncn2[C@@H]1O[C@H](COP(=O)(O)CP(=O)(O)OP(=O)(O)O)[C@@H](O)[C@H]1O [α,β-methylene-ATP]",inhibition of orthodromically evoked field potentials by known P2X/P2Y agonists,[1],unable to inhibit
